Read-outs that look alike come from different tables or passages of the source.
Legend:
[1] = target: WRN (BV08), human Werner helicase (Uniprot Q14191, amino acids 517-1235 with L1074F point mutation) (Homo sapiens (Human), UniProt Q14191, L1074F); assay: WRN (BV08) ADP-Glo assay; assay type: biochemical; details: class symbols A-E, read-out: ADP-Glo_hWRN_IC50
[2] = test system: p21 induction in HCT116 cells; assay: p21 induction in HCT116 cells; assay type: cell-based; details: HCT116 cells, 24 h compound incubation, read-out: P21_EC50
In short: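 EC50 from non-linear curve fit of p21 immunofluorescence (800 nm), with GAPDH (700 nm) read alongside. DMSO and a reference WRN inhibitor served as low and high controls. Cells (2,000/well) got 11 compound concentrations in duplicate for 24 h at 37 °C.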

WRN (BV08), human Werner helicase (Uniprot Q14191, amino acids 517-1235 with L1074F point mutation), sequence (Q14191 other isoform, or with tags, fused parts or gaps L1074F (already in the parent)): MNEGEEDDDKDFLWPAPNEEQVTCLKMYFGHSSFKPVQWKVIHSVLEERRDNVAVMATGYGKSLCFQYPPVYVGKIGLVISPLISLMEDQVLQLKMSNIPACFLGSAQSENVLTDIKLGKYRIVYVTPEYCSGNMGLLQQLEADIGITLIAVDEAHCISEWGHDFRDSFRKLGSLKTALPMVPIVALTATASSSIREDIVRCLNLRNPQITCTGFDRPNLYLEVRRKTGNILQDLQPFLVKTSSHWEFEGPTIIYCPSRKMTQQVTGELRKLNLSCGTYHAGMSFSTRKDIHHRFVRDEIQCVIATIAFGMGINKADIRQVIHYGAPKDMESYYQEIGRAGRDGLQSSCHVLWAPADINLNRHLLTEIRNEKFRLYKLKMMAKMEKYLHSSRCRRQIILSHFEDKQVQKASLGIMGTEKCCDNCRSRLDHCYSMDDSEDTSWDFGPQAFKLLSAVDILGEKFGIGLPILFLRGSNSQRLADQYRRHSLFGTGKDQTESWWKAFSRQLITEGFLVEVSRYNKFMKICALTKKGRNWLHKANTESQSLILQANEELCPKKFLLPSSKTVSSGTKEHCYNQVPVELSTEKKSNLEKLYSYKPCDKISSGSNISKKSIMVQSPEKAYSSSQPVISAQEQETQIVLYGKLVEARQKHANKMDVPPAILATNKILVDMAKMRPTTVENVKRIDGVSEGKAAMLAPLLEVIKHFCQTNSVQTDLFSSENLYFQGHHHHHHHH

IC50 [1] [µM] | EC50 ([2]; Homo sapiens, HCT-116, 24 h) [µM] | EC50 [2] [µM] | SMILES
0.005 to 0.05 | < 0.5 |  | CCc1c(N2CCN(C(=O)c3c(OC)ncc(C)c3O)C[C@@H]2C)c(=O)c2nc(C3CC3)cnc2n1CC(=O)Nc1ccc(C(F)(F)F)cc1Cl [I-225, N-[2-chloro-4-(trifluoromethyl)phenyl]-2-{2-cyclopropyl-6-ethyl-7-[(2S)-4-(4-hydroxy-2-methoxy-5-methylpyridine-3-carbonyl)-2-methylpiperazin-1-yl]-8-oxo-5H,8H-pyrido[2,3-b]pyrazin-5-yl}acetamide]
≤ 0.005 | < 0.5 |  | [2H]C([2H])([2H])Nc1cnc2c(n1)c(=O)c(N1CCN(C(=O)c3ncnc(C)c3O)[C@H]3CC[C@@H]31)c(CC)n2CC(=O)Nc1ccc(C(F)(F)F)cc1Cl [I-226, N-[2-chloro-4-(trifluoromethyl)phenyl]-2-{6-ethyl-7-[(1S,6S)-5-(5-hydroxy-6-methylpyrimidine-4-carbonyl)-2,5-diazabicyclo[4.2.0]octan-2-yl]-2-[(methyl-d3)amino]-8-oxo-5H,8H-pyrido[2,3-b]pyrazin-5-yl}acetamide]
0.005 to 0.05 | < 0.5 |  | CCc1c(N2CCN(C(=O)c3ncnc(C)c3O)[C@H]3CC[C@@H]32)c(=O)c2nc(N(C)C)cnc2n1CC(=O)Nc1cc(F)c(C(F)(F)F)cc1C [I-236, 2-[2-(dimethylamino)-6-ethyl-7-[(1S,6S)-5-(5-hydroxy-6-methylpyrimidine-4-carbonyl)-2,5-diazabicyclo[4.2.0]octan-2-yl]-8-oxo-5H,8H-pyrido[2,3-b]pyrazin-5-yl]-N-[5-fluoro-2-methyl-4-(trifluoromethyl)phenyl]acetamide]
0.005 to 0.05 | < 0.5 |  | CCc1c(N2CCN(C(=O)c3c(OC)ncc(C)c3O)CC2)c(=O)c2nc(C3CC3)cnc2n1CC(=O)Nc1ccc(C(F)(F)F)cc1Cl [I-239, N-[2-chloro-4-(trifluoromethyl)phenyl]-2-{2-cyclopropyl-6-ethyl-7-[4-(4-hydroxy-2-methoxy-5-methylpyridine-3-carbonyl)piperazin-1-yl]-8-oxo-5H,8H-pyrido[2,3-b]pyrazin-5-yl} acetamide]
≤ 0.005 | < 0.5 |  | CCc1c(N2CCN(C(=O)c3ncnc(C)c3O)[C@H]3CC[C@@H]32)c(=O)c2nc(-c3ccnn3C)cnc2n1CC(=O)Nc1ccc(C(F)(F)F)cc1Cl [I-241, N-[2-chloro-4-(trifluoromethyl)phenyl]-2-{6-ethyl-7-[(1S,6S)-5-(5-hydroxy-6-methylpyrimidine-4-carbonyl)-2,5-diazabicyclo[4.2.0]octan-2-yl]-2-(1-methyl-1H-pyrazol-5-yl)-8-oxo-5H,8H-pyrido[2,3-b]pyrazin-5-yl}acetamide]
0.005 to 0.05 | < 0.5 |  | CCc1c(N2CCN(C(=O)c3c(OC)ncc(C)c3O)[C@H]3CCC[C@@H]32)c(=O)c2nc(N(C)C)cnc2n1CC(=O)Nc1ccc(C(F)(F)F)cc1Cl [I-243, 2-{7-[(4aS,7aS)-4-(4-hydroxy-2-methoxy-5-methylpyridine-3-carbonyl)-octahydro-1H-cyclopenta[b]pyrazin-1-yl]-2-(dimethylamino)-6-ethyl-8-oxo-5H,8H-pyrido[2,3-b]pyrazin-5-yl}-N-[2-chloro-4-(trifluoromethyl)phenyl]acetamide]
0.005 to 0.05 | > 5 |  | CCc1c(N2CCN(C(=O)c3ncnc(C)c3O)C[C@@H]2CO)c(=O)c2nc(N(C)C)cnc2n1CC(=O)Nc1ccc(C(F)(F)F)cc1Cl [I-244, N-[2-chloro-4-(trifluoromethyl)phenyl]-2-[2-(dimethylamino)-6-ethyl-7-[(2R)-4-(5-hydroxy-6-methylpyrimidine-4-carbonyl)-2-(hydroxymethyl)piperazin-1-yl]-8-oxo-5H,8H-pyrido[2,3-b]pyrazin-5-yl]acetamide]
0.005 to 0.05 | < 0.5 |  | CCc1c(N2CCN(C(=O)c3ncnc(C)c3O)[C@H]3CC[C@@H]32)c(=O)c2nc(N3CC(F)(F)C3)cnc2n1CC(=O)Nc1ccc(C(F)(F)F)cc1Cl [I-245, N-[2-chloro-4-(trifluoromethyl)phenyl]-2-[2-(3,3-difluoroazetidin-1-yl)-6-ethyl-7-[(1S,6S)-5-(5-hydroxy-6-methylpyrimidine-4-carbonyl)-2,5-diazabicyclo[4.2.0]octan-2-yl]-8-oxo-5H,8H-pyrido[2,3-b]pyrazin-5-yl]acetamide]
0.005 to 0.05 | < 0.5 |  | CCc1c(N2CCN(C(=O)c3ncnc(C)c3O)[C@H]3CC[C@@H]32)c(=O)c2nc(N3CCCC3=O)cnc2n1CC(=O)Nc1ccc(C(F)(F)F)cc1Cl [I-253, N-[2-chloro-4-(trifluoromethyl)phenyl]-2-{6-ethyl-7-[(1S,6S)-5-(5-hydroxy-6-methylpyrimidine-4-carbonyl)-2,5-diazabicyclo[4.2.0]octan-2-yl]-8-oxo-2-(2-oxopyrrolidin-1-yl)-5H,8H-pyrido[2,3-b]pyrazin-5-yl}acetamide]

The remaining lines, values behind:

SMILES | IC50 [1] [µM] | EC50 ([2]; Homo sapiens, HCT-116, 24 h) [µM] | EC50 [2] [µM]
CCc1c(N2CCN(C(=O)c3ncnc(C)c3O)CC2)c(=O)c2nc(N3CCCC34CC4)cnc2n1CC(=O)Nc1ccc(C(F)(F)F)cc1Cl [I-224, 2-(2-{4-azaspiro[2.4]heptan-4-yl}-6-ethyl-7-[4-(5-hydroxy-6-methylpyrimidine-4-carbonyl)piperazin-1-yl]-8-oxo-5H,8H-pyrido[2,3-b]pyrazin-5-yl)-N-[2-chloro-4-(trifluoromethyl)phenyl]acetamide] | 0.005 to 0.05 | 2 to 5 | 
CCc1c(N2CCN(C(=O)c3ncnc(C)c3O)[C@H]3CC[C@@H]32)c(=O)c2nc(NC)cnc2n1CC(=O)Nc1ccc(C(F)(F)F)cc1Cl [I-227, N-[2-chloro-4-(trifluoromethyl)phenyl]-2-{6-ethyl-7-[(1S,6S)-5-(5-hydroxy-6-methylpyrimidine-4-carbonyl)-2,5-diazabicyclo[4.2.0]octan-2-yl]-2-(methylamino)-8-oxo-5H,8H-pyrido[2,3-b]pyrazin-5-yl}acetamide] | ≤ 0.005 |  | < 0.5
CCc1c(N2CCN(C(=O)c3c(OC)ncc(C)c3O)C[C@@H]2C)c(=O)c2nc(N(C)C)cnc2n1CC(=O)Nc1ccc(C(F)(F)F)cc1Cl [I-228, N-[2-chloro-4-(trifluoromethyl)phenyl]-2-[2-(dimethylamino)-6-ethyl-7-[(2S)-4-(4-hydroxy-2-methoxy-5-methylpyridine-3-carbonyl)-2-methylpiperazin-1-yl]-8-oxo-5H,8H-pyrido[2,3-b]pyrazin-5-yl]acetamide] | 0.005 to 0.05 | < 0.5 | 
CCc1c(C23CCN(C(=O)c4ncnc(C)c4O)CC2C3)c(=O)c2nc(N(C)C)cnc2n1CC(=O)Nc1ccc(C(F)(F)F)cc1Cl (stereo not drawn) [I-229, N-[2-chloro-4-(trifluoromethyl)phenyl]-2-[2-(dimethylamino)-6-ethyl-7-[3-(5-hydroxy-6-methylpyrimidine-4-carbonyl)-3-azabicyclo[4.1.0]heptan-6-yl]-8-oxo-5H,8H-pyrido[2,3-b]pyrazin-5-yl]acetamide] | 0.005 to 0.05 | 0.5 to 2 | 
CCc1c(N2CCN(C(=O)c3ncnc(C)c3O)[C@H]3CC[C@@H]32)c(=O)c2nc(N(C)C)cnc2n1CC(=O)Nc1ccc(C(F)F)cc1Cl [I-240, N-[2-chloro-4-(difluoromethyl)phenyl]-2-[2-(dimethylamino)-6-ethyl-7-[(1S,6S)-5-(5-hydroxy-6-methylpyrimidine-4-carbonyl)-2,5-diazabicyclo[4.2.0]octan-2-yl]-8-oxo-5H,8H-pyrido[2,3-b]pyrazin-5-yl]acetamide] | 0.005 to 0.05 | < 0.5 | 
CCc1c(N2CCN(C(=O)c3ncnc(C)c3O)[C@H]3CC[C@@H]32)c(=O)c2nc(N3CC(OC)C3)cnc2n1CC(=O)Nc1ccc(C(F)(F)F)cc1Cl [I-242, N-[2-chloro-4-(trifluoromethyl)phenyl]-2-{6-ethyl-7-[(1S,6S)-5-(5-hydroxy-6-methylpyrimidine-4-carbonyl)-2,5-diazabicyclo[4.2.0]octan-2-yl]-2-(3-methoxyazetidin-1-yl)-8-oxo-5H,8H-pyrido[2,3-b]pyrazin-5-yl}acetamide] | 0.005 to 0.05 | < 0.5 | 
CCc1c(N2CCN(C(=O)c3ncnc(C)c3O)[C@H]3CC[C@@H]32)c(=O)c2nc(N3CC(C)(O)C3)cnc2n1CC(=O)Nc1ccc(C(F)(F)F)cc1Cl [I-246, N-[2-chloro-4-(trifluoromethyl)phenyl]-2-[6-ethyl-2-(3-hydroxy-3-methylazetidin-1-yl)-7-[(1S,6S)-5-(5-hydroxy-6-methylpyrimidine-4-carbonyl)-2,5-diazabicyclo[4.2.0]octan-2-yl]-8-oxo-5H,8H-pyrido[2,3-b]pyrazin-5-yl]acetamide] | 0.005 to 0.05 | 0.5 to 2 | 
CCc1c(N2CCN(C(=O)c3ncnc(C)c3O)CC2(C)C)c(=O)c2nc(N(C)C)cnc2n1CC(=O)Nc1ccc(C(F)(F)F)cc1Cl [I-249, N-[2-chloro-4-(trifluoromethyl)phenyl]-2-[2-(dimethylamino)-6-ethyl-7-[4-(5-hydroxy-6-methylpyrimidine-4-carbonyl)-2,2-dimethylpiperazin-1-yl]-8-oxo-5H,8H-pyrido[2,3-b]pyrazin-5-yl]acetamide] | 0.005 to 0.05 | < 0.5 | 
CCc1c(N2CCN(C(=O)c3ncnc(C)c3O)[C@H]3CC[C@@H]32)c(=O)c2nc(N3CCOCC3)cnc2n1CC(=O)Nc1ccc(C(F)(F)F)cc1Cl [I-250, N-[2-chloro-4-(trifluoromethyl)phenyl]-2-{6-ethyl-7-[(1S,6S)-5-(5-hydroxy-6-methylpyrimidine-4-carbonyl)-2,5-diazabicyclo[4.2.0]octan-2-yl]-2-(morpholin-4-yl)-8-oxo-5H,8H-pyrido[2,3-b]pyrazin-5-yl}acetamide] | 0.005 to 0.05 | < 0.5 | 

Reference: US20250034136A1 (Nimbus Wadjet, Inc., priority 2023, published 2025)
